Results on eleven compounds are retold here after patent publication US6479510B2, “Quinuclidine-substituted aryl compounds for treatment of disease” (Pharmacia & Upjohn Company, priority 2000, dated 2002).

Structures are written as SMILES. Where a name gives a salt, the structure may show the parent alone. Read-outs that look alike come from different tables or passages of the source.

For orientation: Ki means a dissociation constant, usually derived from enzyme kinetics or from competition with a known ligand.

The target of this assay is α7 nAChR (Rattus norvegicus, UniProt Q05941). The experiment in a line: [3H]-MLA competition binding assay in rat brain membranes. The text has this:
Materials and Methods for identifying binding constants: […]

α7 nAChR, sequence (Q05941 23-502): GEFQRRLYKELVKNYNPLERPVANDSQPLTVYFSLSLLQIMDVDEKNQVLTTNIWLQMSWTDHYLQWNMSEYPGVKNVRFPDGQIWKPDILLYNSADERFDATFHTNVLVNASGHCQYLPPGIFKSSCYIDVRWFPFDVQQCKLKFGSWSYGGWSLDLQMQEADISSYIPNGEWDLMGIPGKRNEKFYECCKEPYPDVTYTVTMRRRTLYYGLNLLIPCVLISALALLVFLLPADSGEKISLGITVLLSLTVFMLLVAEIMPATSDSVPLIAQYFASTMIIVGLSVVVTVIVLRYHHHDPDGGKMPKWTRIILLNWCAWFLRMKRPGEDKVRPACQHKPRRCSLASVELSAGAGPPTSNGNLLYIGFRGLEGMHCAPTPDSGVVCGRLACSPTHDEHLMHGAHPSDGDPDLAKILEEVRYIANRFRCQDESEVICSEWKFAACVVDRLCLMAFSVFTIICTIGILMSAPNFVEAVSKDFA

The compound `O=C(N[C@H]1CN2CCC1CC2)c1ccc(Oc2ccc(O)cc2)cc1` [Example 1, N-[(3R)-1-azabicyclo[2.2.2]oct-3-yl]-4-(4-hydroxyphenoxy)benzamide] displayed an inhibitory constant (Ki) of 278 nM.

Consider `CC(=O)Nc1ccc(Oc2ccc(C(=O)N[C@H]3CN4CCC3CC4)cc2)cc1` [Example 2, N-[(3R)-1-azabicyclo[2.2.2]oct-3-yl]-4-(4-acetamidophenoxy)benzamide], for which affinity was put at a Ki of 270 nM.

Compound `O=C(N[C@H]1CN2CCC1CC2)c1ccc(Oc2ccccc2)cc1` [Example 3, N-[(3R)-1-azabicyclo[2.2.2]oct-3-yl]-4-phenoxybenzamide] yielded a Ki of 847 nM.

As for `O=C(N[C@H]1CN2CCC1CC2)c1ccc(C(=O)c2ccccc2)cc1` [Example 7, N-[(3R)-1-azabicyclo[2.2.2]oct-3-yl]-4-benzoylbenzamide], the inhibitory constant (Ki) was found to be 1580 nM.

`O=C(N[C@H]1CN2CCC1CC2)c1ccc(Oc2ccc(F)cc2)cc1` [Example 8, N-[(3R)-1-azabicyclo[2.2.2]oct-3-yl]-4-(4-fluorophenoxy)benzamide] showed a Ki of 910 nM.

`O=C(N[C@H]1CN2CCC1CC2)c1ccc(Oc2cccc(Cl)c2)cc1` [Example 12, N-[(3R)-1-azabicyclo[2.2.2]oct-3-yl]-4-(3-chlorophenoxy)-benzamide] yielded a Ki of 1590 nM.

Regarding `O=C(N[C@H]1CN2CCC1CC2)c1ccc(Oc2ccc(Cl)cc2)cc1` [Example 13, N-[(3R)-1-azabicyclo[2.2.2]oct-3-yl]-4-(4-chlorophenoxy)-benzamide], the Ki was 1240 nM.

Consider `COc1cccc(Oc2ccc(C(=O)N[C@H]3CN4CCC3CC4)cc2)c1` [Example 15, N-[(3R)-1-azabicyclo[2.2.2]oct-3-yl]-4-(3-methoxyphenoxy)-benzamide], for which the Ki (read-out: Ki) is 835 nM.

As to `COc1ccc(Oc2ccc(C(=O)N[C@H]3CN4CCC3CC4)cc2)cc1` [Example 16, N-[(3R)-1-azabicyclo[2.2.2]oct-3-yl]-4-(4-methoxyphenoxy)-benzamide], the inhibition constant (Ki) came out at 414 nM.

Compound `O=C(N[C@H]1CN2CCC1CC2)c1ccc(Sc2cccc(Cl)c2)cc1` [Example 17, N-[(3R)-1-azabicyclo[2.2.2]oct-3-yl]-4-(3-chlorophenylsulfanyl)benzamide] showed an inhibition constant (Ki) of 170 nM.

For `CC1C(NC(=O)c2ccc(Oc3ccccc3)cc2)C2CCN1CC2` (centres unmarked) [Example 23, N-(2-methyl-1-azabicyclo[2.2.2]oct-3-yl)-4-phenoxybenzamide Fumarate], the Ki (read-out: Ki) lay within 1660 to 1980 nM.
